These results are taken from patent US20250152675A1, “I-TYPE RECOMBINANT COLLAGEN WITH HIGH TRANSDERMAL ABSORBABILITY, AND USE THEREOF” (XI'AN GIANT BIOGENE TECHNOLOLGY CO., LTD, priority 2022, published 2025).

Residues, ends and D or L forms follow the SMILES beside them.

This data set can be described thus: Transdermal penetration through ex vivo mouse skin in a single-chamber diffusion cell, content by BCA kit. The format is in vitro ADME, Kunming mice. The note with it: collagen peptide 5 mg/ml in 0.9% NaCl, diffusion area 2.0 cm^2, 37.5° C. How it is done: 1. Preparation of Mouse Skin Ex Vivo 10 Kunming mice of 20 to 22 g with half male and half […] were used in the experiment. After the mice were killed, the hairs on the abdomen were removed. Then the skin on the hair-removed area was peeled off, stripped of fat and tendons, and rinsed repeatedly with distilled water. After being washed, the mouse skins were rinsed with normal saline, then treated with 10% glycerol, and stored at −20° C. for use (use up within 7 days).
Single-chamber diffusion cell: The effective diffusion area of the diffusion cell is 2.0 cm^2, the volume of the receiving cell is 14 ml, the length of the custom-made stirrer is 1.4 cm, and the receiving solution is 0.9% NaCl solution.
The stored mouse skin was taken out, thawed, washed with normal saline, and sandwiched between the receiving chamber and the supplying chamber, with the medicated side facing the supplying chamber and the skin side facing the receiving chamber. The temperature of the water bath system was adjusted to 37.5° C., and the stirring speed was adjusted to 100 rpm/min. 0.9% NaCl solution pre-warmed at 37° C. was added to the receiving chamber and the air bubbles were exhausted, in order to reduce the interference, the inner surface of the mouse skin was firstly contacted with the receiving solution without medication and all the receiving solution was replaced. Then the 27 collagen peptides synthesized were prepared into 5 mg/ml solutions using 0.9% NaCl respectively, which were injected into the supplying chamber and firmly adhere to the mouse skin respectively. After 24 h, part of the receiving solution was absorbed with a syringe as the sample solution to determine the transdermal amount of collagen peptide.
The BCA kit method was used to determine the polypeptide content in the sample solution. […]
`CC(C)C[C@H](NC(=O)[C@H](CC(=O)O)NC(=O)CNC(=O)[C@@H]1CCCN1C(=O)[C@@H](NC(=O)CNC(=O)[C@H](CCC(N)=O)NC(=O)[C@H](CCC(=O)O)NC(=O)CNC(=O)[C@@H]1CCCN1C(=O)[C@H](CCCCN)NC(=O)CNC(=O)[C@H](C)NC(=O)[C@H](CCC(=O)O)NC(=O)CNC(=O)[C@@H]1CCCN1C(=O)[C@@H]1CCCN1C(=O)CN)C(C)C)C(=O)NCC(=O)N[C@@H](C)C(=O)N1CCC[C@H]1C(=O)NCC(=O)N1CCC[C@H]1C(=O)N[C@@H](CO)C(=O)NCC(=O)N[C@@H](C)C(=O)N[C@@H](CCCNC(=N)N)C(=O)NCC(=O)N[C@@H](CCC(=O)O)C(=O)N[C@@H](CCCNC(=N)N)C(=O)NCC(=O)N[C@@H](Cc1ccccc1)C(=O)N1CCC[C@H]1C(=O)NCC(=O)N[C@@H](CCC(=O)O)C(=O)N[C@@H](CCCNC(=N)N)C(=O)O` [compound 25] (H-GPPGEAGKPGEQGVPGDLGAPGPSGARGERGFPGER-OH; N-terminus and C-terminus assumed) had a 24h penetration amount of 2255.78 µg. Consider `CSCC[C@H](NC(=O)[C@H](CCC(N)=O)NC(=O)CNC(=O)[C@@H]1CCCN1C(=O)[C@H](C)NC(=O)CNC(=O)[C@H](CC(N)=O)NC(=O)[C@H](CCC(=O)O)NC(=O)CNC(=O)[C@@H]1CCCN1C(=O)[C@H](CO)NC(=O)CNC(=O)[C@@H]1CCCN1C(=O)[C@H](CCC(=O)O)NC(=O)CNC(=O)[C@H](CCCCN)NC(=O)[C@@H]1CCCN1C(=O)CNC(=O)[C@H](C)NC(=O)[C@@H]1CCCN1C(=O)CNC(=O)[C@H](C)NC(=O)[C@H](CC(=O)O)NC(=O)CNC(=O)[C@H](CCCCN)NC(=O)[C@H](C)NC(=O)CN)C(=O)NCC(=O)N1CCC[C@H]1C(=O)N[C@@H](CCCNC(=N)N)C(=O)NCC(=O)N[C@@H](CC(C)C)C(=O)N1CCC[C@H]1C(=O)NCC(=O)N[C@@H](CCC(=O)O)C(=O)N[C@@H](CCCNC(=N)N)C(=O)O` [compound 4] (H-GAKGDAGPAGPKGEPGSPGENGAPGQMGPRGLPGER-OH; N-terminus and C-terminus assumed), for which the 24h penetration amount was 2034.78 µg. `C[C@H](NC(=O)CNC(=O)[C@@H](NC(=O)[C@H](C)NC(=O)CNC(=O)[C@H](CC(=O)O)NC(=O)[C@H](CC(N)=O)NC(=O)CNC(=O)[C@H](CCCNC(=N)N)NC(=O)[C@H](C)NC(=O)CNC(=O)[C@H](C)NC(=O)[C@@H]1CCCN1C(=O)CNC(=O)[C@@H]1CCCN1C(=O)[C@H](C)NC(=O)CNC(=O)[C@@H]1CCCN1C(=O)[C@H](CCCNC(=N)N)NC(=O)CNC(=O)[C@H](CCCNC(=N)N)NC(=O)[C@H](CCC(=O)O)NC(=O)CN)[C@@H](C)O)C(=O)N[C@@H](C)C(=O)NCC(=O)N1CCC[C@H]1C(=O)N1CCC[C@H]1C(=O)NCC(=O)N1CCC[C@H]1C(=O)N[C@H](C(=O)NCC(=O)N1CCC[C@H]1C(=O)N[C@@H](C)C(=O)NCC(=O)N1CCC[C@H]1C(=O)N1CCC[C@H]1C(=O)O)[C@@H](C)O` [compound 6] (H-GERGRPGAPGPAGARGNDGATGAAGPPGPTGPAGPP-OH; N-terminus and C-terminus assumed) displayed a 24h penetration amount of 2233.35 µg. Take `CC(C)[C@H](NC(=O)CNC(=O)[C@H](CCCNC(=N)N)NC(=O)[C@H](CCC(=O)O)NC(=O)CN)C(=O)N[C@@H](CCC(N)=O)C(=O)NCC(=O)N1CCC[C@H]1C(=O)N1CCC[C@H]1C(=O)NCC(=O)N1CCC[C@H]1C(=O)N[C@@H](C)C(=O)NCC(=O)N1CCC[C@H]1C(=O)N[C@@H](CCCNC(=N)N)C(=O)NCC(=O)N[C@@H](C)C(=O)N[C@@H](CC(N)=O)C(=O)NCC(=O)N[C@@H](C)C(=O)N1CCC[C@H]1C(=O)NCC(=O)N[C@@H](CC(N)=O)C(=O)N[C@@H](CC(=O)O)C(=O)NCC(=O)N[C@@H](C)C(=O)N[C@@H](CCCCN)C(=O)NCC(=O)N[C@@H](CC(=O)O)C(=O)N[C@@H](C)C(=O)NCC(=O)N[C@@H](C)C(=O)N1CCC[C@H]1C(=O)NCC(=O)N[C@@H](C)C(=O)N1CCC[C@H]1C(=O)O` [compound 27] (H-GERGVQGPPGPAGPRGANGAPGNDGAKGDAGAPGAP-OH; N-terminus and C-terminus assumed): the 24h penetration amount is 2186.24 µg. `CC(C)[C@H](NC(=O)[C@H](C)NC(=O)CNC(=O)[C@@H]1CCCN1C(=O)[C@@H]1CCCN1C(=O)CNC(=O)[C@@H]1CCCN1C(=O)[C@@H](NC(=O)CNC(=O)[C@H](CCCNC(=N)N)NC(=O)[C@H](CCC(=O)O)NC(=O)CN)C(C)C)C(=O)NCC(=O)N1CCC[C@H]1C(=O)N[C@@H](C)C(=O)NCC(=O)N[C@@H](CCCCN)C(=O)N[C@@H](CC(=O)O)C(=O)NCC(=O)N[C@@H](CCC(=O)O)C(=O)N[C@@H](C)C(=O)NCC(=O)N[C@@H](C)C(=O)N[C@@H](CCC(N)=O)C(=O)NCC(=O)N1CCC[C@H]1C(=O)N1CCC[C@H]1C(=O)NCC(=O)N1CCC[C@H]1C(=O)N[C@@H](C)C(=O)NCC(=O)N1CCC[C@H]1C(=O)N[C@@H](C)C(=O)NCC(=O)N[C@@H](CCC(=O)O)C(=O)N[C@@H](CCCNC(=N)N)C(=O)O` [compound 12] (H-GERGVPGPPGAVGPAGKDGEAGAQGPPGPAGPAGER-OH; N-terminus and C-terminus assumed) yielded a 24h penetration amount of 2613.34 µg. In the case of `CC(C)[C@H](NC(=O)CNC(=O)[C@H](CCCNC(=N)N)NC(=O)[C@H](CCC(=O)O)NC(=O)CN)C(=O)N[C@@H](CCC(N)=O)C(=O)NCC(=O)N1CCC[C@H]1C(=O)N1CCC[C@H]1C(=O)NCC(=O)N1CCC[C@H]1C(=O)N[C@@H](C)C(=O)NCC(=O)N1CCC[C@H]1C(=O)N[C@@H](CCCNC(=N)N)C(=O)NCC(=O)N[C@@H](C)C(=O)N[C@@H](CC(N)=O)C(=O)NCC(=O)N[C@@H](C)C(=O)N1CCC[C@H]1C(=O)NCC(=O)N[C@@H](CC(N)=O)C(=O)N[C@@H](CC(=O)O)C(=O)NCC(=O)N[C@@H](C)C(=O)N[C@@H](CCCCN)C(=O)NCC(=O)N[C@@H](CC(=O)O)C(=O)N[C@@H](C)C(=O)NCC(=O)N[C@@H](C)C(=O)N1CCC[C@H]1C(=O)NCC(=O)N[C@@H](C)C(=O)N1CCC[C@H]1C(=O)O` [compound 15] (H-GERGVQGPPGPAGPRGANGAPGNDGAKGDAGAPGAP-OH; N-terminus and C-terminus assumed), the 24h penetration amount turned out to be 2111.23 µg. Take `CC(C)C[C@H](NC(=O)CNC(=O)[C@H](CCCNC(=N)N)NC(=O)[C@@H](NC(=O)CNC(=O)[C@H](CC(=O)O)NC(=O)[C@H](CCCCN)NC(=O)CNC(=O)[C@@H]1CCCN1C(=O)[C@H](CO)NC(=O)CNC(=O)[C@H](CC(=O)O)NC(=O)[C@H](C)NC(=O)CNC(=O)[C@H](CCCCN)NC(=O)[C@@H]1CCCN1C(=O)CNC(=O)[C@H](C)NC(=O)[C@H](CC(=O)O)NC(=O)CNC(=O)[C@H](CCCNC(=N)N)NC(=O)[C@H](CC(=O)O)NC(=O)CNC(=O)[C@H](CCCCN)NC(=O)[C@@H]1CCCN1C(=O)CNC(=O)[C@@H]1CCCN1C(=O)[C@H](CC(C)C)NC(=O)CNC(=O)[C@H](C)NC(=O)[C@H](C)NC(=O)CNC(=O)[C@H](CCCNC(=N)N)NC(=O)[C@H](CCC(=O)O)NC(=O)CN)C(C)C)C(=O)N[C@H](C(=O)O)[C@@H](C)O` [compound 18] (H-GERGAAGLPGPKGDRGDAGPKGADGSPGKDGVRGLT-OH; N-terminus and C-terminus assumed): the 24h penetration amount was found to be 2309.24 µg. For the molecule `CSCC[C@H](NC(=O)[C@H](CCC(N)=O)NC(=O)CNC(=O)[C@@H]1CCCN1C(=O)[C@H](C)NC(=O)CNC(=O)[C@H](CC(N)=O)NC(=O)[C@H](CCC(=O)O)NC(=O)CN)C(=O)NCC(=O)N1CCC[C@H]1C(=O)N[C@@H](CCCNC(=N)N)C(=O)NCC(=O)N[C@@H](CC(C)C)C(=O)N1CCC[C@H]1C(=O)NCC(=O)N[C@@H](CCC(=O)O)C(=O)N[C@@H](CCCNC(=N)N)C(=O)NCC(=O)N[C@@H](CCCNC(=N)N)C(=O)N1CCC[C@H]1C(=O)NCC(=O)N[C@@H](C)C(=O)N1CCC[C@H]1C(=O)NCC(=O)N1CCC[C@H]1C(=O)N[C@@H](C)C(=O)NCC(=O)N[C@@H](C)C(=O)N[C@@H](CCCNC(=N)N)C(=O)NCC(=O)N[C@@H](CC(N)=O)C(=O)N[C@@H](CC(=O)O)C(=O)NCC(=O)N[C@@H](C)C(=O)N[C@H](C(=O)O)[C@@H](C)O` [compound 5] (H-GENGAPGQMGPRGLPGERGRPGAPGPAGARGNDGAT-OH; N-terminus and C-terminus assumed), the 24h penetration amount was found to be 2123.45 µg.

`CC(C)C[C@H](NC(=O)CNC(=O)[C@@H](NC(=O)[C@@H](NC(=O)CN)C(C)C)C(C)C)C(=O)N1CCC[C@H]1C(=O)NCC(=O)N[C@@H](CCC(N)=O)C(=O)N[C@@H](CCCNC(=N)N)C(=O)NCC(=O)N[C@@H](CCC(=O)O)C(=O)N[C@@H](CCCNC(=N)N)C(=O)NCC(=O)N[C@@H](Cc1ccccc1)C(=O)N1CCC[C@H]1C(=O)NCC(=O)N[C@@H](CC(C)C)C(=O)N1CCC[C@H]1C(=O)NCC(=O)N1CCC[C@H]1C(=O)N[C@@H](CO)C(=O)NCC(=O)N[C@@H](CCC(=O)O)C(=O)N1CCC[C@H]1C(=O)NCC(=O)N[C@@H](CCCCN)C(=O)N[C@@H](CCC(N)=O)C(=O)NCC(=O)N1CCC[C@H]1C(=O)N[C@@H](CO)C(=O)NCC(=O)N[C@@H](C)C(=O)N[C@@H](CO)C(=O)NCC(=O)N[C@@H](CCC(=O)O)C(=O)N[C@@H](CCCNC(=N)N)C(=O)O` [compound 22] (H-GVVGLPGQRGERGFPGLPGPSGEPGKQGPSGASGER-OH; N-terminus and C-terminus assumed) showed a 24h penetration amount of 2092.23 µg.
